Patent publication US20070093524A1, “5-Lipoxygenase modulators” (Wyeth, priority 2005, published 2007)

How the values were obtained:
[1] = system: 5-LO mRNA; experiment: Downregulation of 5-LO gene expression (5-LO mRNA by real-time RT-PCR) in acetylated-LDL-stimulated macrophage cell lines; assay type: cell-based, human and mouse; settings: macrophage cell line (THP-1 or J774, not specified); for inhibition at 0.3 µM: 0.3 uM compound; for inhibition at 3 µM: 3.0 uM compound; for inhibition at 0.1 µM: 0.1 uM compound; for inhibition at 1 µM: 1.0 uM compound
Protocol: A panel of LXR or PPAR modulator compounds was tested to determine whether they could downregulate 5-LO gene expression. The compounds were individually tested to determine whether they could downregulate 5-LO gene expression in human and mouse macrophage cell lines.
Preparation of Acetylated LDL: LDL was dialyzed with 500 mL phosphate buffered saline (PBS) three times. 2.5 mL of dialyzed LDL was mixed with 2.5 mL of saturated sodium acetate with continuous stirring in an ice-water bath. Acetic anhydride was added in 7 times 7.5 μL over a period of 1 hour with continuous stirring. Then, the mixture was stirred for an additional 1 hour. The solution was dialyzed against 500 mL PBS containing 0.3 mM EDTA three times. The protein concentration is determined using Bio-Rad DC protein assay kit.
Cell Culture and Compound Treatment: Human THP-1 cells were maintained in RPMI 1640 medium containing 10% Fetal Bovine Serum (FBS), 25 mM Hepes buffer, […] Genamicin, 1 mM Sodium pyruvate, and 50 μM β-mercaptoethanol. THP-1 cells were differentiated with 75 ng/mL phorbal 12,13-dibutyrate (PDBu) three days prior to assay to induce differentiation of the cells into adherent macrophages. Cells were seeded in 12 well plates in 1 mL of complete media. Each well contained 400,000 cells. The cells were stimulated with RPMI 1640 medium (1% FBS) containing 100 μg/mL acetylated-LDL in presence of phorbol ester for 48 hours, including several wells without acetylated-LDL treatment as a control. The medium was then changed to RPMI 1640 medium without FBS, plus the test compounds with phorbol ester for 48 hours. Control cells were not incubated with test compounds. The cells were incubated at 37° C. in a humidified CO2 incubator. The cells were then ready for RNA extraction.
Murine J774 cells were maintained in DMEM (high glucose) containing 10% FBS, 100 units/mL penicillin, and 100 μg/mL streptomycin. Six hours prior to assay, J774 cells were seeded into 96-well plates in 150 μL complete media. Each well contains 75,000 cells. The cells were stimulated with DMEM-high glucose (1% FBS) containing 100 μg/mL acetylated-LDL for 24 to 48 hours, including several wells without acetylated-LDL treatment as a control. The media was then changed to DMEM-high glucose (without FBS) plus the test compounds for 24 to 48 hours. Compounds were dosed in DMSO vehicle and control cells were treated with vehicle alone. The cells were incubated at 37° C. in a humidified CO2 incubator. The cells were then ready for RNA isolation.
RNA analysis: Total RNA was isolated from the THP-1 cells by using a QIAGEN RNeasy Mini Kit. Real-time quantitative RT-PCR assays were performed using an Applied Biosystems 7900 sequence detector. Each amplification mixture (50 μL) contained 50-100 ng of total RNA, 200 nM forward primer, 200 nM reverse primer, and 200 nM dual-labeled fluorogenic probe. The RT-PCR reagent is from QIAGEN (QuantiTect Probe RT-PCR kit). The RT-PCR thermocycling parameters were 48° C. for 30 minutes, 95° C. for 10 minutes, and 40 cycles at 95° C. for 15 seconds and 55° C. for 1 minute. The samples, no-RT controls, and serially diluted RNA standards were analyzed in parallel. The 5-LO target gene was analyzed and normalized for human glyceraldehyde-3-phosphate dehydrogenase (GAPDH) expression using probe and primers from predeveloped assays for GAPDH (Applied Biosystems). Quantitative analysis was performed using the threshold procedure, and relative amounts were calculated from the standard curve.
Total RNA from the J774 cells was isolated by using the ABI 6100 RNA isolation system for 96-well plates (the THP-1 cells can also be cultured and tested in 96-well plates). Real-time quantitative RT-PCR assays were performed using an Applied Biosystems 7900 sequence detector. Each amplification mixture (50 μL) contained 50-100 ng of total RNA, 200 nM forward primer, 200 nM reverse primer, and 250 nM dual-labeled fluorogenic probe.

melting point [°C] | SMILES | inhibition at 0.3 µM [1] [%] | inhibition at 3 µM [1] [%] | inhibition at 0.1 µM [1] [%] | inhibition at 1 µM [1] [%]
– | CCOC(=O)Cc1ccc(COc2cccc(-c3c(Cc4ccccc4)cnc4c(C(F)(F)F)cccc34)c2)cc1 [Compound I-15, {4-[3-(3-Benzyl-8-trifluoromethyl-quinolin-4-yl)-phenoxymethyl]-phenyl}-acetic acid ethyl ester] | 79 | 76 | – | –
– | CCOC(=O)Cc1cccc(CNc2cccc(-c3c(C(=O)c4ccccc4)cnc4c(C(F)(F)F)cccc34)c2)c1 [Compound I-13, (3-{[3-(3-Benzoyl-8-trifluoromethyl-quinolin-4-yl)-phenylamino]-methyl}-phenyl)-acetic acid ethyl ester] | 40 | 30 | – | –
– | CCOc1cc(CNc2cccc(-c3c(Cc4ccccc4)cnc4c(C(F)(F)F)cccc34)c2)ccc1O [Compound I-19, 4-{[3-(3-Benzyl-8-trifluoromethyl-quinolin-4-yl)-phenylamino]-methyl}-2-ethoxy-phenol] | 22 | 60 | – | –
– | O=C(O)Cc1ccc(CNc2cccc(-c3c(Cc4ccccc4)cnc4c(C(F)(F)F)cccc34)c2)cc1 [Compound I-1, (4-{[3-(3-Benzyl-8-trifluoromethyl-quinolin-4-yl)-phenylamino]-methyl}-phenyl)-acetic acid] | 82 | 83 | 91 | 88
– | CC(C)(C(=O)O)c1ccc(COc2cccc(-c3c(Cc4ccccc4)cnc4c(C(F)(F)F)cccc34)c2)cc1 [Compound I-7, 2-{4-[3-(3-Benzyl-8-trifluoromethyl-quinolin-4-yl)-phenoxymethyl]-phenyl}-2-methyl-propionic acid] | – | – | 87 | 88
– | O=C(O)Cc1ccc(C#Cc2cccc(-c3c(Cc4ccccc4)cnc4c(C(F)(F)F)cccc34)c2)cc1 [Compound I-9, {4-[3-(3-Benzyl-8-trifluoromethyl-quinolin-4-yl)-phenylethynyl]-phenyl}-acetic acid] | – | – | 22 | 45
– | Cc1cnc2c(C(F)(F)F)cccc2c1-c1cccc(OCc2ccc(CC(=O)O)cc2)c1 [Compound I-4, {4-[3-(3-Methyl-8-trifluoromethyl-quinolin-4-yl)-phenoxymethyl]-phenyl}-acetic acid] | – | – | 79 | 90
– | Cc1cnc2c(C(F)(F)F)cccc2c1-c1cccc(OCc2ccc([C@@H](C)C(=O)O)cc2)c1 [Compound I-10, (2R)-2-{4-[3-(3-Methyl-8-trifluoromethyl-quinolin-4-yl)-phenoxymethyl]-phenyl}-propionic acid] | – | – | 86 | 83
– | COC(=O)COc1ccc(COc2cccc(-c3c(-c4ccccc4)cnc4c(C(F)(F)F)cccc34)c2)cc1 [Compound I-23, {4-[3-(3-Phenyl-8-trifluoromethyl-quinolin-4-yl)-phenoxymethyl]-phenoxy}-acetic acid methyl ester] | 76 | 92 | – | –
122 | O=C(O)Cc1ccc(COc2cccc(-c3c(-c4ccccc4)cnc4c(C(F)(F)F)cccc34)c2)cc1 [Compound I-3, {4-[3-(3-Phenyl-8-trifluoromethyl-quinolin-4-yl)-phenoxymethyl]-phenyl}-acetic acid] | – | – | 88 | 89
– | COC(=O)Cc1ccc(CNc2cccc(-c3c(C(=O)c4ccccc4)cnc4c(C(F)(F)F)cccc34)c2)cc1 [Compound I-11, (4-{[3-(3-Benzoyl-8-trifluoromethyl-quinolin-4-yl)-phenylamino]-methyl}-phenyl)-acetic acid methyl ester] | 74 | 71 | – | –
– | O=C(O)Cc1ccc(COc2cccc(-c3c(-c4ccccc4)cnc4c(Cl)cccc34)c2)cc1 [Compound I-5, {4-[3-(8-Chloro-3-phenyl-quinolin-4-yl)-phenoxymethyl]-phenyl}-acetic acid] | – | – | 87 | 91
– | COC(=O)C(C)c1ccc(CNc2cccc(-c3c(C)cnc4c(C(F)(F)F)cccc34)c2)cc1 (centres unmarked) [Compound I-21, 2-(4-{[3-(3-Methyl-8-trifluoromethyl-quinolin-4-yl)-phenylamino]-methyl}-phenyl)-propionic acid methyl ester] | 78 | 63 | – | –
– | Oc1cccc(CNc2cccc(-c3c(Cc4ccccc4)cnc4c(C(F)(F)F)cccc34)c2)c1O [Compound I-18, 3-{[3-(3-Benzyl-8-trifluoromethyl-quinolin-4-yl)-phenylamino]-methyl}-benzene-1,2-diol] | 63 | 58 | – | –
– | NNC(=O)Cc1ccc(CNc2cccc(-c3c(Cc4ccccc4)cnc4c(C(F)(F)F)cccc34)c2)cc1 [Compound I-12, (4-{[3-(3-Benzyl-8-trifluoromethyl-quinolin-4-yl)-phenylamino]-methyl}-phenyl)-acetic acid hydrazide] | 71 | 76 | – | –
– | O=C(O)Cc1ccc(COc2cccc(-c3c(Cc4ccccc4)cnc4c(C(F)(F)F)cccc34)c2)cc1 [Compound I-2, {4-[3-(3-Benzyl-8-trifluoromethyl-quinolin-4-yl)-phenoxymethyl]-phenyl}-acetic acid] | – | – | 84 | 92
– | CCOC(=O)Cc1ccc(COc2cccc(-c3c(-c4ccccc4)cnc4c(C(F)(F)F)cccc34)c2)cc1 [Compound I-14, {4-[3-(3-Phenyl-8-trifluoromethyl-quinolin-4-yl)-phenoxymethyl]-phenyl}-acetic acid ethyl ester] | 81 | 84 | – | –
– | COc1cc(CNc2cccc(-c3c(Cc4ccccc4)cnc4c(C(F)(F)F)cccc34)c2)ccc1O [Compound I-17, 4-{[3-(3-Benzyl-8-trifluoromethyl-quinolin-4-yl)-phenylamino]-methyl}-2-methoxy-phenol] | 41 | 53 | – | –
– | Cc1cnc2c(Cl)cccc2c1-c1cccc(OCc2ccc(CC(=O)O)cc2)c1 [Compound I-6, {4-[3-(8-Chloro-3-methyl-quinolin-4-yl)-phenoxymethyl]-phenyl}-acetic acid] | – | – | 62 | 81
– | COC(=O)C(C)(C)c1ccc(CNc2cccc(-c3c(C)cnc4c(C(F)(F)F)cccc34)c2)cc1 [Compound I-22, 2-Methyl-2-(4-{[3-(3-methyl-8-trifluoromethyl-quinolin-4-yl)-phenylamino]-methyl}-phenyl)-propionic acid methyl ester] | 67 | 55 | – | –
– | CC(C)(C(=O)O)c1ccc(COc2cccc(-c3c(-c4ccccc4)cnc4c(Cl)cccc34)c2)cc1 [Compound I-8, 2-{4-[3-(8-Chloro-3-phenyl-quinolin-4-yl)-phenoxymethyl]-phenyl}-2-methyl-propionic acid] | – | – | 89 | 93
– | COC(=O)Cc1ccc(CNc2cccc(-c3c(C)cnc4c(C(F)(F)F)cccc34)c2)cc1 [Compound I-20, (4-{[3-(3-Methyl-8-trifluoromethyl-quinolin-4-yl)-phenylamino]-methyl}-phenyl)-acetic acid methyl ester] | 78 | 78 | – | –
